Measured values: article PMC10178848, “Modulating fast skeletal muscle contraction protects skeletal muscle in animal models of Duchenne muscular dystrophy” (The Journal of Clinical Investigation, 2023)

Tested on: GRMD plasma proteins
Type: in vivo, dog
Settings: Post-Treatment to GRMD baseline; Increased in GRMD

O=c1ccc(-c2cnc(OCC(F)(F)F)nc2)nn1Cc1cncc(F)c1 [EDG-5506]
Change from GRMD Baseline (fraction): Fructose-bisphosphate aldolase A (ALDOA): -0.0462 fraction
Change from GRMD Baseline (fraction): G2/mitotic-specific cyclin-B1 (CCNB1): 0.0445 fraction
Change from GRMD Baseline (fraction): Galectin-4 (LGALS4): -0.0246 fraction
Change from GRMD Baseline (fraction): Galectin-7 (LGALS7): 0.0215 fraction
Change from GRMD Baseline (fraction): Glucose-6-phosphate isomerase (GPI): -0.1195 fraction
Change from GRMD Baseline (fraction): Glyceraldehyde-3-phosphate dehydrogenase (GAPDH): 0.1936 fraction
Change from GRMD Baseline (fraction): Glycogen synthase kinase-3 alpha/beta (GSK3A GSK3B): -0.1722 fraction
Change from GRMD Baseline (fraction): Granulocyte-macrophage colony-stimulating factor (CSF2): -0.1154 fraction
Change from GRMD Baseline (fraction): Growth factor receptor-bound protein 2 (GRB2): -0.2826 fraction
Change from GRMD Baseline (fraction): Growth/differentiation factor 5 (GDF5): -0.0828 fraction
Change from GRMD Baseline (fraction): Heat shock 70 kDa protein 1A (HSPA1A): -0.1812 fraction
Change from GRMD Baseline (fraction): Heat shock cognate 71 kDa protein (HSPA8): -0.1958 fraction
Change from GRMD Baseline (fraction): Heat shock protein HSP 90-alpha/beta (HSP90AA1 HSP90AB1): -0.0775 fraction
Change from GRMD Baseline (fraction): Heat shock protein HSP 90-beta (HSP90AB1): -0.0807 fraction
Change from GRMD Baseline (fraction): Heat shock protein beta-1 (HSPB1): -0.0394 fraction
Change from GRMD Baseline (fraction): Hepatoma-derived growth factor-related protein 2 (HDGFRP2): 0.011 fraction
Change from GRMD Baseline (fraction): Heterogeneous nuclear ribonucleoprotein A/B (HNRNPAB): -0.0915 fraction
Change from GRMD Baseline (fraction): Heterogeneous nuclear ribonucleoprotein Q (SYNCRIP): -0.0651 fraction
Change from GRMD Baseline (fraction): Heterogeneous nuclear ribonucleoproteins A2/B1 (HNRNPA2B1): -0.1176 fraction
Change from GRMD Baseline (fraction): Hexokinase-2 (HK2): 0.0338 fraction
Change from GRMD Baseline (fraction): Histidine triad nucleotide-binding protein 1 (HINT1): -0.0574 fraction
Change from GRMD Baseline (fraction): Histone H1.2 (HIST1H1C): -0.0242 fraction
Change from GRMD Baseline (fraction): Histone deacetylase 8 (HDAC8): 0.0429 fraction
Change from GRMD Baseline (fraction): Homeodomain-interacting protein kinase 3 (HIPK3): 0.4997 fraction
Change from GRMD Baseline (fraction): Immunoglobulin superfamily containing leucine-rich repeat protein 2 (ISLR2): -0.0595 fraction
Change from GRMD Baseline (fraction): Inducible T-cell costimulator (ICOS): -0.0476 fraction
Change from GRMD Baseline (fraction): Inosine-5'-monophosphate dehydrogenase 2 (IMPDH2): -0.0129 fraction
Change from GRMD Baseline (fraction): Insulin-degrading enzyme (IDE): -0.2863 fraction
Change from GRMD Baseline (fraction): Insulin-like growth factor-binding protein 3 (IGFBP3): 0.0105 fraction
Change from GRMD Baseline (fraction): Intercellular adhesion molecule 5 (ICAM5): -0.1345 fraction
Change from GRMD Baseline (fraction): Interferon alpha-10 (IFNA10): -0.0472 fraction
Change from GRMD Baseline (fraction): Interleukin-1 alpha (IL1A): -0.0188 fraction
Change from GRMD Baseline (fraction): Interleukin-1 receptor-like 2 (IL1RL2): 0.0618 fraction
Change from GRMD Baseline (fraction): Interleukin-15 receptor subunit alpha (IL15RA): -0.0392 fraction
Change from GRMD Baseline (fraction): Interleukin-17F (IL17F): -0.0474 fraction
Change from GRMD Baseline (fraction): Interleukin-37 (IL37): -0.0158 fraction
Change from GRMD Baseline (fraction): Junctional adhesion molecule B (JAM2): -0.0421 fraction
Change from GRMD Baseline (fraction): Junctional adhesion molecule C (JAM3): 0.0569 fraction
Change from GRMD Baseline (fraction): Kallikrein-6 (KLK6): -0.032 fraction
Change from GRMD Baseline (fraction): Kallikrein-12 (KLK12): 0.0927 fraction
Change from GRMD Baseline (fraction): Kallikrein-14 (KLK14): 0.0054 fraction
Change from GRMD Baseline (fraction): Kin of IRRE-like protein 3 (KIRREL3): 0.0811 fraction
Change from GRMD Baseline (fraction): Kremen protein 2 (KREMEN2): -0.0135 fraction
Change from GRMD Baseline (fraction): Kynureninase (KYNU): 0.1449 fraction
Change from GRMD Baseline (fraction): L-Selectin (SELL): -0.0484 fraction
Change from GRMD Baseline (fraction): L-lactate dehydrogenase B chain (LDHB): -0.1273 fraction
Change from GRMD Baseline (fraction): Leucine-rich repeat serine/threonine-protein kinase 2 (LRRK2): -0.023 fraction
Change from GRMD Baseline (fraction): Leucine-rich repeat transmembrane protein FLRT1 (FLRT1): 0.162 fraction
Change from GRMD Baseline (fraction): Low affinity immunoglobulin epsilon Fc receptor (FCER2): -0.0106 fraction
Change from GRMD Baseline (fraction): MAP kinase-activated protein kinase 2 (MAPKAPK2): -0.1017 fraction
Change from GRMD Baseline (fraction): MAP kinase-activated protein kinase 3 (MAPKAPK3): -0.0643 fraction
Change from GRMD Baseline (fraction): Macrophage scavenger receptor types I and II (MSR1): 0.4558 fraction
Change from GRMD Baseline (fraction): Malate dehydrogenase, cytoplasmic (MDH1): -0.0153 fraction
Change from GRMD Baseline (fraction): Methionine aminopeptidase 2 (METAP2): -0.0243 fraction
Change from GRMD Baseline (fraction): Microtubule-associated protein tau (MAPT): -0.0598 fraction
Change from GRMD Baseline (fraction): Mitogen-activated protein kinase 3 (MAPK3): -0.1158 fraction
Change from GRMD Baseline (fraction): Mitogen-activated protein kinase 8 (MAPK8): -0.1634 fraction
Change from GRMD Baseline (fraction): Mitogen-activated protein kinase 12 (MAPK12): -0.2043 fraction
Change from GRMD Baseline (fraction): Mitogen-activated protein kinase 14 (MAPK14): -0.1229 fraction
Change from GRMD Baseline (fraction): Mothers against decapentaplegic homolog 3 (SMAD3): -0.0623 fraction
Change from GRMD Baseline (fraction): Myeloblastin (PRTN3): -0.0133 fraction
Change from GRMD Baseline (fraction): Myoglobin (MB): -0.1998 fraction
Change from GRMD Baseline (fraction): Myosin-binding protein C, slow-type (MYBPC1): -0.0674 fraction
Change from GRMD Baseline (fraction): NKG2D ligand 2 (ULBP2): 0.031 fraction
Change from GRMD Baseline (fraction): NSFL1 cofactor p47 (NSFL1C): -0.264 fraction
Change from GRMD Baseline (fraction): Natural cytotoxicity triggering receptor 3 (NCR3): -0.0108 fraction
Change from GRMD Baseline (fraction): Neuronal cell adhesion molecule (NRCAM): -0.0939 fraction
Change from GRMD Baseline (fraction): Neutral ceramidase (ASAH2): -0.0127 fraction
Change from GRMD Baseline (fraction): Nucleoside diphosphate kinase A (NME1): -0.1372 fraction
Change from GRMD Baseline (fraction): OCIA domain-containing protein 1 (OCIAD1): -0.0044 fraction
Change from GRMD Baseline (fraction): Oncostatin-M (OSM): 0.019 fraction
Change from GRMD Baseline (fraction): Opioid-binding protein/cell adhesion molecule (OPCML): -0.0002 fraction
Change from GRMD Baseline (fraction): PIK3CA/PIK3R1 (PIK3CA PIK3R1): -0.229 fraction
Change from GRMD Baseline (fraction): Parathyroid hormone-related protein (PTHLH): -0.097 fraction
Change from GRMD Baseline (fraction): Peptidyl-prolyl cis-trans isomerase E (PPIE): -0.0771 fraction
Change from GRMD Baseline (fraction): Peroxiredoxin-1 (PRDX1): -0.0908 fraction
Change from GRMD Baseline (fraction): Peroxiredoxin-6 (PRDX6): -0.0459 fraction
Change from GRMD Baseline (fraction): Phosphatidylethanolamine-binding protein 1 (PEBP1): 0.0739 fraction
Change from GRMD Baseline (fraction): Phosphoglucomutase-1 (PGM1): 0.1179 fraction
Change from GRMD Baseline (fraction): Phosphoglycerate mutase 1 (PGAM1): -0.9265 fraction
Change from GRMD Baseline (fraction): Plasma serine protease inhibitor (SERPINA5): -0.0121 fraction
Change from GRMD Baseline (fraction): Platelet glycoprotein 4 (CD36): 0.0288 fraction
Change from GRMD Baseline (fraction): Platelet-activating factor acetylhydrolase (PLA2G7): 0.0256 fraction
Change from GRMD Baseline (fraction): Platelet-derived growth factor receptor alpha (PDGFRA): -0.0004 fraction
Change from GRMD Baseline (fraction): Proliferating cell nuclear antigen (PCNA): -0.0276 fraction
Change from GRMD Baseline (fraction): Protein NOV homolog (NOV): -0.0669 fraction
Change from GRMD Baseline (fraction): Protein S100-A12 (S100A12): -0.009 fraction
Change from GRMD Baseline (fraction): RAC-alpha/beta/gamma serine/threonine-protein kinase (AKT1 AKT2 AKT3): -0.2013 fraction
Change from GRMD Baseline (fraction): RAC-beta serine/threonine-protein kinase (AKT2): -0.1736 fraction
Change from GRMD Baseline (fraction): Rab GDP dissociation inhibitor beta (GDI2): -0.0642 fraction
Change from GRMD Baseline (fraction): Receptor tyrosine-protein kinase erbB-3 (ERBB3): -0.022 fraction
Change from GRMD Baseline (fraction): Receptor-type tyrosine-protein kinase FLT3 (FLT3): -0.0737 fraction
Change from GRMD Baseline (fraction): Renin (REN): -0.032 fraction
Change from GRMD Baseline (fraction): Retinoblastoma-associated protein (RB1): 0.235 fraction
Change from GRMD Baseline (fraction): S-formylglutathione hydrolase (ESD): 0.0004 fraction
Change from GRMD Baseline (fraction): Serine/threonine-protein kinase 17B (STK17B): 0.0071 fraction
Change from GRMD Baseline (fraction): Serine/threonine-protein kinase Chk2 (CHEK2): 0.4343 fraction
Change from GRMD Baseline (fraction): Serine/threonine-protein kinase WNK3 (WNK3): -0.2205 fraction
Change from GRMD Baseline (fraction): Serine/threonine-protein kinase receptor R3 (ACVRL1): -0.0651 fraction
Change from GRMD Baseline (fraction): Small nuclear ribonucleoprotein F (SNRPF): -0.0033 fraction
Change from GRMD Baseline (fraction): Somatostatin-28 (SST): -0.0229 fraction
Change from GRMD Baseline (fraction): T-lymphocyte activation antigen CD80 (CD80): 0.0022 fraction
Change from GRMD Baseline (fraction): Thymic stromal lymphopoietin (TSLP): -0.034 fraction
Change from GRMD Baseline (fraction): Thyroid peroxidase (TPO): -0.0311 fraction
Change from GRMD Baseline (fraction): Tissue factor pathway inhibitor (TFPI): 0.029 fraction
Change from GRMD Baseline (fraction): Transcription factor AP-1 (JUN): 0.0325 fraction
Change from GRMD Baseline (fraction): Transketolase (TKT): -0.16 fraction
Change from GRMD Baseline (fraction): Translationally-controlled tumor protein (TPT1): -0.0704 fraction
Change from GRMD Baseline (fraction): Triosephosphate isomerase (TPI1): -0.2239 fraction
Change from GRMD Baseline (fraction): Tropomyosin beta chain (TPM2): 0.0295 fraction
Change from GRMD Baseline (fraction): Troponin I, cardiac muscle (TNNI3): 0.0415 fraction
Change from GRMD Baseline (fraction): Troponin I, fast skeletal muscle (TNNI2): -0.0403 fraction
Change from GRMD Baseline (fraction): Troponin T, cardiac muscle (TNNT2): -0.0244 fraction
Change from GRMD Baseline (fraction): Tumor necrosis factor ligand superfamily member 11 (TNFSF11): 0.0726 fraction
Change from GRMD Baseline (fraction): Tumor necrosis factor receptor superfamily member 1B (TNFRSF1B): -0.0355 fraction
Change from GRMD Baseline (fraction): Tumor necrosis factor receptor superfamily member 3 (LTBR): -0.0213 fraction
Change from GRMD Baseline (fraction): Tyrosine-protein kinase Yes (YES1): -0.136 fraction
Change from GRMD Baseline (fraction): Tyrosine-protein kinase ZAP-70 (ZAP70): 0.0305 fraction
Change from GRMD Baseline (fraction): Tyrosine-protein phosphatase non-receptor type 1 (PTPN1): -0.0601 fraction
